The structures appear in SMILES notation.

For the compound `COc1ccc2cc(-c3csc(-c4ccccc4)n3)ccc2c1`, the melting point (usually the temperature, or range, at which the solid turns liquid) fell in the range of 191 to 193 °C.
The same measure for `COc1ccc2c(c1)S(=O)c1nccnc1N2C` (stereo not given): 229 to 231 °C; for `CCNC(=O)c1c([Si](C)(C)C)ccc(C(F)F)c1Cl`: 120 to 121 °C.
The value for `COc1ccc(C(NCC(=O)Nc2c(C(C)C)cccc2C(C)C)c2ccc(OC)cc2)cc1` was 84 to 85 °C; that for `Cc1cccc2c1N(C)C(=O)C(NC(=O)Nc1cccc(-c3nnn[nH]3)c1)N=C2C1CCCCC1` (stereo not given) was 199 to 201 °C.
The value for `CN(C)c1ccc(-c2nc3c(N[C@H]4[C@@H](C(N)=O)[C@@H]5C=C[C@H]4C5)c(Br)cnc3[nH]2)cc1` was 264 to 265 °C; that for `O=C(NC1CC2C=CC1C2)n1cc(F)c(=O)[nH]c1=O` (stereo not given) was 180 °C.
In turn, `CCCn1c(=O)n(-c2ccc3c(c2)OCO3)c2ncc(F)cc21` gave a melting point of 153 to 154 °C.
`CCCCCCCCCCCCCCOc1cccc(CC(=O)Nc2ccccc2CO)c1` registered a melting point of 100 to 103 °C.
The value for `CN(C)C(=O)Cc1c(C(=O)c2ccccc2)[nH]c2cc(Cl)ccc12` was 190 to 193 °C.
Turning to `COc1ccc2nc3snc(C(=O)c4ncc(C)c(OC)c4C)n3c2c1`, the melting point is 196 to 197 °C.
The same measure for `Cc1ccc([N+](=O)[O-])cc1N(C)c1nnn[nH]1`: 201 to 205 °C; for `CCOC(=O)C1=C(COCC#CC(O)c2ccccc2)NC(C)=C(C(=O)OC)C1c1cccc(Cl)c1Cl` (stereo not given): 160 to 164 °C.
The same measure for `CCOC(=O)C(C)Oc1ccc(Sc2nnc3cc(Cl)ccc3n2)cc1` (stereo not given): 86 to 88 °C; for `C=C(C)CN(CC)c1nc(C)[nH]c2cc(-c3ccccc3)nc1-2`: 148 to 150 °C; for `Cn1c(C(F)(F)F)cc(=O)n(-c2cc(OCc3ccc(Cl)cc3Cl)c(Cl)cc2F)c1=O`: 112 to 120 °C.
The value for `O=C(O)CCCC1(c2ccc(F)cc2)OCCO1` was 65 to 67 °C; that for `Cc1c(Br)c(Br)nn1C(C)C(=O)N(C)C(C)C` (stereo not given) was 95 to 96.5 °C.
For `Cc1cccc(OCCCN2CCC(C(O)(c3ccc(F)cc3)c3ccc(F)cc3)CC2)c1`, the melting point was in the range of 112 to 114 °C.
On to `COc1ccc(CS[C@@H]2C[C@@H](CSCc3ccccc3)N(S(C)(=O)=O)C2)cc1`, for which the melting point fell in the range of 69 to 71 °C.
The same measure for `O=C(O)C1CCc2c(c3cc(F)ccc3n2C(=O)c2ccccc2)C1` (stereo not given): 218 to 220 °C; for `COCON=C(C(C)=O)C(=O)OC`: 115 to 120 °C.
The same measure for `CC(Oc1ccc(-c2ccc(S(N)(=O)=O)cc2)cc1)C(O)CCc1cccnc1` (stereo not given): 222 to 223 °C; for `CCC1CCCCN1C(=O)C=Cc1c(-c2cccc(N)c2)nn2ccccc12` (stereo not given): 150 to 151 °C; for `CCOC(=O)CCc1cc(S(C)(=O)=O)cc(-c2nc(=O)c3ccc(Cl)cc3s2)n1`: 240 °C.
The same measure for `Cc1cc(Oc2c(Cl)cc(C(F)(F)F)cc2Cl)nn1C(=O)NC(C)C`: 103 to 105 °C; for `CCCN(CCC)CCc1ccc(O)c(NC(N)=O)c1`: 168 to 171 °C; for `CC(C)(C)OC(=O)N1CCCN(c2nc3ccccc3[nH]2)CC1`: 225 to 226 °C.
On to `Cc1ccc(Cn2nc(C(=O)NC3C(C)CCCC3C)cc2-c2ccc(Cl)c(Cl)c2)cc1Cl` (stereo not given), for which the melting point is 59.9 °C.
The same measure for `NNc1nc(Cl)nc2cccc(F)c12`: above 280 °C; for `Cn1ccc2ncnc(Oc3ccc(NC(=O)Nc4cc(C(F)(F)F)ccc4F)c(Cl)c3)c21`: 193 to 197 °C.
The value for `CCCOc1ccccc1-c1nc2nnc(SC)nc2c(=O)[nH]1` was 195 to 197 °C; that for `CCn1c(=O)c2[nH]c(/C=C/c3ccccc3OC)nc2n(CC)c1=O` was above 270 °C; that for `CC(=O)Nc1ccc2nc(-c3cc(C)c(OCCO)c(C)c3)[nH]c(=O)c2c1` was above 300 °C.
The same measure for `CS(=O)(=O)C=C(N)C1(c2ccc(Cl)cc2)CCC1`: 125 to 126 °C; for `O=C(O)CCCc1cc2nc(Cl)ccc2n1S(=O)(=O)c1ccc(OC(F)(F)F)cc1`: 168 °C; for `O=CN(O)C(CCc1ccccc1)CS(=O)(=O)N1CCN(c2cc(Cl)ncn2)CC1` (stereo not given): 155 to 157 °C.
Compound `NC(=O)Nc1cccc2c1C(=O)c1c-2n[nH]c1-c1cccs1` had a melting point of 214 °C.
The value for `CNC(=O)c1cc(C#N)cc(Cl)c1NC(=O)c1cc(Cl)nn1-c1ncccc1Cl` was 197 to 200 °C; that for `NS(=O)(=O)c1cc(CCNC(=O)/C=C/c2cccs2)ccc1OCCc1ccccc1` was 170 to 174 °C.
The value for `CCCCOC(=O)NC1CCN(c2c(F)cc3c(=O)c(C(=O)O)cn(C4CC4)c3c2F)C1` (stereo not given) was 228 to 230 °C; that for `CC(C)(C)OC(=O)Cc1nc(Sc2ccccc2)ccc1[N+](=O)[O-]` was 104 to 107 °C; that for `Nc1cccc(-c2ccc(CCN3CCN(CCc4ccc(F)cc4)CC3)cc2)n1` was 165 to 167 °C.
The same measure for `O=C(O)CSc1nc(-c2ccccc2)ns1`: 97 °C; for `COc1ccc(Cn2c(=O)ccc3c(C)nc(N4CCC[C@H]4CO)nc32)cc1Cl`: 152 to 153 °C; for `NS(=O)(=O)c1ccc(NC(=O)c2cccnc2SSc2ncccc2C(=O)Nc2ccc(S(N)(=O)=O)cc2)cc1`: 280 °C.
With `O=C(/C=C/c1cccc(S(=O)(=O)N2CCN(CCc3ccc4ccccc4c3)CC2)c1)NO`, the melting point amounted to 184 °C.
The value for `Cc1noc(C)c1Cn1cc(-n2c(=O)n(C)n(Cc3ccccc3)c2=O)cn1` was 124 to 126 °C; that for `Clc1cccc(-c2nnc3c4ccc(Cl)cc4c(-c4ccccc4)nn23)c1` was 227 to 230 °C; that for `Cn1nc(C#N)c(Nc2cc(Cl)c(Cl)cc2[N+](=O)[O-])n1` was 148 to 150 °C.
`CC(Cn1c2ccccc2c2ccccc21)OS(C)(=O)=O` (stereo not given) had a melting point of 125 to 127 °C.
The value for `CNc1c(Cl)cc2c3c(cccc13)C(=O)N(C1CCN(C)CC1)C2=O` was 298 to 302 °C; that for `CC(C)C[C@@H](CC=O)NC(=O)[C@H](Cc1c[nH]cn1)NC(=O)[C@H](Cc1ccccc1)NC(=O)OCc1ccccc1` was 173 to 175 °C; that for `O=S1(=O)CCN2C=CC=C(c3ccc(Oc4ccc(O)cc4)cc3)C2=N1` was 289 to 290 °C.
The value for `COc1ccc(-n2nc(-c3ccc(OC)c(CCC(=O)N(C)O)c3OC)cc2-c2ccc(Cl)cc2)cc1` was 90 to 92 °C.
`CC1CCc2c(N3CCC(Cc4ccccc4)CC3)c(F)cc3c(=O)c(C(=O)O)cn1c23` (stereo not given) registered a melting point of 230 to 232 °C.
Consider `CCCCOC(=O)c1ccc(C(=O)c2ccccc2)cc1`, for which the melting point is 50 to 60 °C.
The value for `CCOC(=O)COc1cccc2c1CCC2=O` was 91 to 93 °C; that for `CCOC(=O)C(C(=O)C(C)C)C(c1ccc(F)cc1)c1ccccn1` (stereo not given) was 106 to 108 °C; that for `COc1cc(C(C)=O)cc(OC)c1OCCCC(=O)O` was 122 to 124 °C.
The same measure for `COc1cc(Nc2c(C#N)cnc3cc(-c4ccc(CNCCS(=O)(=O)c5ccccc5)o4)ccc23)c(Cl)cc1Cl`: 123 to 128 °C; for `CCOC(=O)Cc1ncc2c(n1)-c1ccc(Cl)cc1C(c1ccccc1F)=NC2`: 98 to 103 °C.
The value for `CCOC(=O)Cc1ccc(Cc2nc3c(F)c(F)cc(F)c3s2)cc1` was 75 to 77 °C.
On to `COc1cc(Cc2nccc3c(OC(C)=O)cc(OC(C)=O)cc23)cc(OC)c1OC`, for which the melting point was 118 to 120 °C.
The value for `CCCCOc1cc(-n2c(=O)cc(C(F)(F)F)n(C)c2=O)c(F)cc1Br` was 73 °C; that for `CC(CNc1ccc(Cl)cc1)COc1ccc(C(=O)O)cc1` (stereo not given) was 148 to 150 °C.
The same measure for `CCCO[C@@H](Cc1ccc(OCCc2nc(-c3ccc(-c4ccccc4)cc3)oc2C)c2ccccc12)C(=O)O`: 151 to 154 °C.
The same measure for `CC(C)CCC1(c2ccccc2)CC(O)=C(Sc2ccccc2)C(=O)O1` (stereo not given): 154 to 155 °C; for `CC[C@H](COC)n1cc(Cl)nc(N2CCc3cc(OC)cc(C#N)c32)c1=O`: 141 to 142 °C.
`COc1ccc2[nH]c3c(c2c1)C1C(=O)NC(=O)C1C(C(=O)OCc1ccccc1)C3` (stereo not given) yielded a melting point of 179 to 181 °C.
Turning to `O=C(O[C@@H]1CC[C@H]1Cl)c1ccccc1` (relative stereo), the melting point was found to be 20 °C.
The same measure for `COCCOc1ccc(/C=C/CO)c(Oc2ncc(C(F)(F)F)cc2Cl)c1`: 119 to 121 °C; for `N[C@@H](Cc1ccc(C(F)(F)F)c(F)c1)[C@H](O)c1ccc(F)cc1` (racemic): 86 to 87 °C.
The value for `CCCCS(=O)c1ccc(C(=O)OC)nc1` (stereo not given) was 150 to 154 °C; that for `Cc1nnc(-c2cc3c(OC[C@@H](O)CN4CCC(c5cccc6ccccc56)CC4)cccc3[nH]2)o1` was 203 to 205 °C; that for `CCN(c1ccc(C(=O)O)nn1)C(C)c1cc(Br)ccc1OCc1ccccc1` (stereo not given) was 129 °C.
For the compound `COc1ccc(N2CCN(c3ccc(-n4c(C)c[nH]c4=O)cc3)CC2)cc1`, the melting point is above 300 °C.
The value for `O=C(O)CC1=C(Cc2ccc3c(Cl)cccc3c2)C(=O)CCC1` was 98 to 100 °C.
The same measure for `Cc1ccc(S(=O)(=O)NC(=O)OCCc2ccc(-n3c(CCCc4ccncc4)nc4cc(C(F)(F)F)c(Cl)cc43)cc2)cc1`: 80 to 87 °C.
The value for `O=[N+]([O-])c1ccc(-c2ccc(-c3ccc([N+](=O)[O-])cc3Cl)o2)c(Cl)c1` was 247 to 248 °C; that for `CCCCCC(=O)OCn1cnc2c1c(=O)n(C)c(=O)n2C` was 67 to 72 °C; that for `CC1CN(c2cc3c(c(NCc4ccccc4)c2F)c(=O)c(C(=O)O)cn3C2CC2)CCN1` (stereo not given) was 129 to 130 °C.
Compound `Cc1cc(CCCCCOc2c(Cl)cc(C3=NCCO3)cc2Cl)on1` yielded a melting point of 42 to 43 °C.
The value for `CCOC(=O)CSCc1cccc(-c2c(CC(=O)Nc3ccc(F)cc3C(F)(F)F)c(=O)oc3cc(Cl)c(C)cc23)c1` was 106 to 108 °C.
The same measure for `CCN(CC)c1cc2cnnn2c(C)n1`: 57 to 58 °C.

These data come from a melting point compilation (Tetko et al.; mined from patent text by program, amines drawn as free bases though some values may be those of a salt).
